Reference: patent publication US11787799B2 (priority 2015, dated 2023)

Experiments:
in vitro [1] = conditions: African green monkey
Measles = assay: microbe, parasite or virus in culture; type: cell-based; conditions: Measles morbillivirus, Vero 76, read-out: EC50 Measles
in vitro [2] = conditions: African green monkey; remark: listed apart in the source
Yellow Fever Virus = assay: microbe, parasite or virus in culture; type: cell-based; conditions: Yellow fever virus, Vero, read-out: EC50 Yellow Fever Virus
Punta Toro virus = assay: microbe, parasite or virus in culture; type: cell-based; conditions: Punta Toro virus, Vero 76, read-out: EC50 Punta Toro virus
in vitro [3] = conditions: dog
Rift Valley virus = assay: organism not typed; type: cell-based; conditions: Vero 76, read-out: EC50 Rift Valley virus
[4] = test system: RSV (resp syncitial virus); assay: microbe, parasite or virus in culture; type: cell-based; conditions: human respiratory syncytial virus, MA104, read-out: EC50 RSV
Influenza A H1N1 = assay: microbe, parasite or virus in culture; type: cell-based; conditions: Influenza A virus, H1N1, MDCK, read-out: EC50 Influenza A H1N1

Q: Which results are given for `Nc1cc2nc[nH]c2c(=O)[nH]1` [3-Deazaguanine, reference compound]?
A: CC50 (in vitro [1]): > 100 µM; EC50 (Measles): 2.4 µM

Q: Which results are given for `O=c1cnn([C@@H]2O[C@H](CO)[C@@H](O)[C@H]2O)c(=O)[nH]1` [Compound 6-Azauridine, 6-Azauridine, reference compound]?
A: CC50 (in vitro [2]): 10 µM; EC50 (Yellow Fever Virus): 0.29 µM

Q: What does the source list for `NC(=O)c1ncn([C@@H]2O[C@H](CO)[C@@H](O)[C@H]2O)n1` [Ribavirin, reference compound]?
A: EC50 (Punta Toro virus): 11 µM; CC50 (in vitro [3]): > 320 µM; EC50 (Rift Valley virus): 9.1 µM; EC50 [4]: 12 µM; EC50 (Influenza A H1N1): 7.5 µM
